In assay [1] the test system is osteoclast. The assay can be described thus: Uptake by osteoclast (cellular uptake experiment). Type of assay: cell-based, mouse. The source says: (§1) Osteoblast was isolated from the parietal bone of a newborn mouse by means of stepwise enzyme digestion according to a method described by Takahashi et al. (Takahashi et al., Endocrinology, 123: 2600-2602 (1988)), and cultured using α-MEM (10% fetal calf serum) for 6 to 8 days for use in the following experiments. Furthermore, osteoclast was obtained by co-culturing osteoblastic cells and bone marrow cells for 6 to 8 days using α-MEM (10% fetal calf serum, 10^−8 M vitamin D3, pH 6.2) on a collagen-coated dish according to a method described by Takahashi et al. (Takahashi et al., Endocrinology, 122: 1373-1382 (1988)). The osteoclast was identified by means of tartaric acid-resistant acidic phosphatase dyeing.
Experiment of uptake by cells: The osteoblast or the co-cultured osteoclast was isolated using 35% Percoll and incubated using α-MEM (10% fetal calf serum) at 37° C. in an atmosphere of 5% CO2 and 95% air for 3 hours. The incubated cells were washed with an incubation buffer of pH 7.4 (10 mM HEPES, 5 mM glucose, 150 mM NaCl, 5 mM KCl, 1.8 mM MgSO4, 1 mM CaCl2) three times, and pre-incubated using the same buffer at 37° C. for 30 minutes. Then, the cells in incubation buffer containing ^99mTc(V)-DMS at a concentration of 129.5 kBq/mL were allowed to infiltrate, and washed with the ice-cooled incubation buffer three times, 5, 10, 30 and 60 minutes later. Then, the cells were lysed with 0.2N NaOH, and radioactivity taken up by the cells was measured using a gamma counter. After completion of the radioactivity measurement, the amount of proteins contained in the cell lysate was measured using BCA Protein Assay Kit (produced by Pierce), and the ^99mTc-DMS uptake per unit protein mass (% dose/mg protein) was obtained. As to ^99mTc-HMDP, a similar experiment was carried out for comparison.
In the method described in Example 2, the pH of the incubation buffer was set at 6.2, 6.6, 7.0, 7.4, 7.8 or 8.2, and the incubation time for ^99mTc(V)-DMS uptake was set at 10 minutes, to examine the effect of pH on the uptake of ^99mTc(V)-DMS by osteoclast and osteoblast. […]

The subject of assay [2] is osteoclast. In words: Autoradiography of rat knee joint compared with osteoclast/osteoblast marker staining. The format is in vivo, Wistar male rat. The following applies: inferred from ^186Re(V)-DMS autoradiography in rat knee joint. The method, then: ^99mTc is unsuitable for autoradiography since it has a half life of 6 hours and is a gamma ray-emitting nuclide. Considering this, a radioisotope of Re that is a homologous element of Tc was used to evaluate the in vivo accumulation of ^99mTc(V)-DMS in osteoclast.
^186Re(V)-DMS prepared according to a method described by Horiuchi et al. (Nucl. Med. Biol. 26: 771-779 (1999)) was administered in an amount of 370 kBq to a Wistar male rat, and the rat was sacrificed 3 hours later. Knee joints were extracted, and 30 μm thick specimens were prepared and autoradiographed. Furthermore, from the same regions, 20 μm thick specimens were prepared and the tartaric acid-resistant acidic phosphatase as an osteoclast marker or the alkaline phosphatase as an osteoblast marker was detected by means of staining. The results of the autoradiography and staining were compared to evaluate the accumulation of ^99mTc(V)-DMS in osteoclast.

Assay [3] relates to Na^+-dependent phosphate transporter. The assay can be described thus: Participation of sodium ion-dependent phosphate transporter in uptake by osteoclast (phosphate anion, PFA, Na+, pH and cation effects). Type of assay: cell-based, mouse. The note with it: varied [Pi], PFA 1 or 5 mM, cations, compared with K2H^32PO4, FIGS. 6 through 10. As for the experimental part:
In the method described in Example 2, an incubation buffer of pH 7.4 was used for pre-incubation, and the buffer containing ^99mTc(V)-DMS was an incubation buffer of pH 7.4 with the phosphate anion concentration ([Pi]) adjusted to 0 mM, 0.05 mM, 0.1 mM, 0.5 mM, 1.0 mM or 5.0 mM, while the incubation time was set at 5 minutes, to measure the uptake of ^99mTc(V)-DMS by osteoclast.
Furthermore, a similar experiment was carried out except that the buffer containing ^99mTc(V)-DMS was an incubation buffer of pH 7.4 containing 1 mM or 5 mM of phosphonoformic acid (PFA) which was a sodium ion-dependent phosphate transporter inhibitor.
Moreover, a similar experiment was carried out except that the buffer containing ^99mTc(V)-DMS was an incubation buffer of pH 7.4 with the sodium ion concentration ([Na^+]) adjusted in a range from 0.1 mM to 150 mM, and the incubation time for ^99mTc(V)-DMS uptake was set at 30 seconds, to measure the uptake of ^99mTc(V)-DMS into osteoclast.
In the method described in Example 2, the pH of the incubation buffer was set at 6.2, 6.6, 7.0, 7.4, 7.8 or 8.2, and the incubation time for ^99mTc(V)-DMS uptake was set at 30 seconds, to examine effct of pH on the uptake of ^99mTc(V)-DMS into osteoclast. A similar experiment was carried out for K2H^32PO4, to compare the behaviors of ^99mTc(V)-DMS and K2H^32PO4. […]

A further assay deals with osteoblast. The assay can be described thus: Uptake by osteoblast (cellular uptake experiment). The format is cell-based, mouse.
Description: as §1
Experiment of uptake by cells: The osteoblast or the co-cultured osteoclast was isolated using 35% Percoll and incubated using α-MEM (10% fetal calf serum) at 37° C. in an atmosphere of 5% CO2 and 95% air for 3 hours. […] Then, the cells were lysed with 0.2N NaOH, and radioactivity taken up by the cells was measured using a gamma counter. After completion of the radioactivity measurement, the amount of proteins contained in the cell lysate was measured using BCA Protein Assay Kit (produced by Pierce), and the ^99mTc-DMS uptake per unit protein mass (% dose/mg protein) was obtained. […]

From US6814952B2, “Diagnostic imaging agent useful for selecting a therapy for cancerous bone metastasis” (Nihon Medi-Physics Co., Ltd., priority 2001, dated 2004) come the findings set out here.

With “^99mTc(V)-dimercaptosuccinic acid [^99mTc(V)-DMS]”, the “effect of pH on the cellular uptake by osteoclast” value in the assay on osteoclast [1] (pH 6.2 to 8.2, incubation time 10 minutes, FIG. 4) is given as “remarkably increases as the pH value decreases”. Moreover, the “effect of incubation modality (extracellular pH) on the cellular uptake by osteoclast” value with osteoclast [1] (pH of buffers for both pre-incubation and uptake 6.2, versus 7.4/6.2 and 7.4/7.4, 10 minutes, FIG. 5) was “the uptake of ^99mTc(V)-DMS rises”. Further, the “cellular uptake by osteoclast (uptake per unit protein mass)” value with osteoclast [1] (time course 5, 10, 30 and 60 minutes, incubation buffer pH 7.4, 37° C., FIG. 2) is reported as “taken up by osteoclastic cells in an especially large amount”. Further, the “accumulation in osteoclast in vivo, inferred from ^186Re(V)-DMS surrogate” value in the assay with osteoclast [2] is listed as “accumulation of ^99mTc(V)-DMS in osteoclast is specific”. Moreover, in assay [3], the “route of uptake by osteoclast” value is “taken up by osteoclast through the Na^+-dependent phosphate transporter”. In the assay on osteoblast (pH 6.2 to 8.2, incubation time 10 minutes, FIG. 3), the “effect of pH on the cellular uptake by osteoblast” value is listed as “does not show any significant difference”. The “cellular uptake by osteoblast (uptake per unit protein mass)” value in the assay with osteoblast (time course 5, 10, 30 and 60 minutes, incubation buffer pH 7.4, 37° C., FIG. 1) is listed as “taken up by osteoblastic cells in an amount smaller than ^99mTc-HMDP”.
